From ChEMBL document CHEMBL5150055, “B-cell Lymphoma 6 Inhibitors: Current Advances and Prospects of Drug Development for Diffuse Large B-cell Lymphomas” (J Med Chem, 2022)
≈ marks a conversion by molar mass, not a printed value. One block for each molecule: values may come before it.

Columns and labels:
[1] = molecular target: T1, B-cell lymphoma 6 protein (Homo sapiens, UniProt P41182); assay: Binding affinity to BCL6 BTB domain (5 to 129 residues) (unknown origin) expressed in Escherichia coli using 5-TAMRA-RSEIISTAPSSWVVPGP as substrate incubated for 1 hrs by FP assay
[2] = molecular target: T1, B-cell lymphoma 6 protein; assay: Binding affinity to BCL6 BTB domain (5 to 129 residues) (unknown origin) expressed in Escherichia coli by SPR analysis
[3] = molecular target: T1, B-cell lymphoma 6 protein; assay: Binding affinity to BCL6 (unknown origin) assessed as ratio of Kinact/Ki incubated for 4 hrs by IPC assay
[4] = molecular target: T1, B-cell lymphoma 6 protein; assay: Inhibition of D2-SMRT peptide binding to human BCL6 BTB-POZ domain incubated for 60 mins by TR-FRET assay
[5] = molecular target: T1, B-cell lymphoma 6 protein; assay: Displacement AF647-BCOR peptide from human BCL6 BTB-POZ domain incubated for 60 mins by TR-FRET assay
[6] = molecular target: T1, B-cell lymphoma 6 protein; assay: Displacement AF647-NCOR peptide from human BCL6 BTB-POZ domain incubated for 60 mins by TR-FRET assay
[7] = Aqueous solubility of compound; format: physicochemical; details: buffer
[8] = molecular target: T1, B-cell lymphoma 6 protein; assay: Inhibition of BCL6 (unknown origin) by HTRF assay
[9] = tested on: SUD4; assay: Antitumor activity against BCL6 dependent human SU-DHL-4 cells assessed as cell growth inhibition; format: functional, cell-based
[10] = tested on: Farage; assay: Antitumor activity against BCL6 dependent human Farage cells assessed as cell growth inhibition; format: functional, cell-based
[11] = molecular target: T1, B-cell lymphoma 6 protein; assay: Binding affinity to BCL6 BTB domain (unknown origin) by SPR analysis
[12] = tested on: DOHH-2; assay: Antitumor activity against BCL6 dependent human DOHH-2 cells assessed as cell growth inhibition; format: functional, cell-based
[13] = tested on: OCI-Ly7; assay: Antitumor activity against BCL6 dependent human OCILY7 cells assessed as cell growth inhibition; format: functional, cell-based
[14] = tested on: SU-DHL-6; assay: Antitumor activity against BCL6 dependent human SU-DHL-6 cells assessed as cell growth inhibition; format: functional, cell-based
[15] = tested on: L02; assay: Antitumor activity against human L02 cells assessed as cell growth inhibition; format: functional, cell-based
[16] = tested on: OCI-Ly10; assay: Antiproliferative activity against human OCI-Ly10 cells assessed as growth inhbition by measuring metabolic viability incubated for 48 hrs by fluorometric resazurin reduction method; format: functional, cell-based; details: OCI-Ly10, 48 h
[17] = tested on: OCI-Ly7; assay: Antiproliferative activity against human OCILY7 cells assessed as growth inhbition by measuring metabolic viability incubated for 48 hrs by fluorometric resazurin reduction method; format: functional, cell-based; details: OCI-Ly7, 48 h
[18] = molecular target: T1, B-cell lymphoma 6 protein; assay: Binding affinity to wild type full length BCL6 BTB domain having SMRT BBD motif sequence (unknown origin) transfected in human HEK293 cells by electrophoretic mobility shift assay; format: cell-based
[19] = tested on: OCI-Ly1; assay: Antiproliferative activity against human OCI-Ly1 cells assessed as growth inhbition by measuring metabolic viability incubated for 48 hrs by fluorometric resazurin reduction method; format: functional, cell-based; details: OCI-Ly1, 48 h
[20] = Binding affinity to wild type full length BCL6 BTB domain SMRT BBD motif sequence mutant (unknown origin) transfected in human HEK293 cells by electrophoretic mobility shift assay; format: cell-based

Molecule: Cc1cc(C)n(-c2ncc(Cl)c(Nc3ccc(Cl)cc3)n2)n1
Kd [1]: 18 µM | Kd [2]: 20 µM

Molecule: O=C(CCl)NCCCCn1c(=O)[nH]c2ccc(Nc3ccc([N+](=O)[O-])cc3Cl)cc21
Ratio [3]: 3 10^1/M/s

Molecule: C[C@@H]1CN(c2ncc(F)c(Nc3ccc(NC(=O)c4cccc(Br)n4)cc3)n2)C[C@H](C)N1
Kd [8]: 1.37 µM | IC50 [9]: 1.39 µM | IC50 [10]: 1.1 µM | Kd [11]: 1.61 µM | IC50 [12]: 1.1 µM | IC50 [13]: 1.1 µM | IC50 [14]: 1.1 µM | IC50 [15]: 21.6 µM

Further lines, with some results ahead:

Ratio [3]: 1.9 10^4/M/s
Molecule: CCC(=O)NCCN1C(=O)C(CCCCNC(=O)CCl)Oc2cc(Nc3cc(OC4CCOCC4)c([N+](=O)[O-])cc3Cl)ccc21 (stereo unspecified)

IC50 [4]: 0.01 µM | IC50 [5]: 0.0251 µM | IC50 [6]: 0.0251 µM
Molecule: Cc1ncccc1[C@H]1C[C@@H](c2cccc3nc(N)ccc23)Nc2c(F)cnn21

solubility [7]: 0.218 µg/mL (≈ 0.348 µM)
Molecule: C[C@@H](NC(=O)COC(=O)CCN1C(=O)/C(=C2/C(=O)Nc3ccc(Cl)cc32)SC1=S)C(=O)N[C@@H](CCC(=O)O)C(=O)O

IC50 [16]: 11.3 µM | IC50 [17]: 11.3 µM | Kd [18]: 10.2 µM | IC50 [19]: 11.3 µM
Molecule: H-HHHHHHPTATHAGLVATVKEAGRSIHEI-OH
Kd [20]: 148 µM
